Test results: PubChem BioAssay (NCI)
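Each compound was tested at five concentrations against cells in 96-well plates for 48 hours. At the TGI there is no net growth.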

Legend:
Experiment in all cases: NCI-60 cell line screen, 48 h
786-0 renal = system: 786-0 renal
A549 NSCLC = system: A549 NSCLC
ACHN renal = system: ACHN renal
BT-549 breast = system: BT-549 breast
CAKI-1 renal = system: CAKI-1 renal
CCRF-CEM leukemia = system: CCRF-CEM leukemia
COLO 205 colon = system: COLO 205 colon
DU-145 prostate = system: DU-145 prostate
EKVX NSCLC = system: EKVX NSCLC
HCC-2998 colon = system: HCC-2998 colon
HCT-116 colon = system: HCT-116 colon
HCT-15 colon = system: HCT-15 colon
HL-60(TB) leukemia = system: HL-60(TB) leukemia
HOP-62 NSCLC = system: HOP-62 NSCLC
HS 578T breast = system: HS 578T breast
HT29 colon = system: HT29 colon
IGROV1 ovarian = system: IGROV1 ovarian
K-562 leukemia = system: K-562 leukemia
KM12 colon = system: KM12 colon
M14 melanoma = system: M14 melanoma
MALME-3M melanoma = system: MALME-3M melanoma
MCF7 breast = system: MCF7 breast
MDA-MB-231 breast = system: MDA-MB-231 breast
MDA-MB-435 = system: MDA-MB-435
MDA-N = system: MDA-N
MOLT-4 leukemia = system: MOLT-4 leukemia
NCI-H226 lung = system: NCI-H226 lung
NCI-H23 lung = system: NCI-H23 lung
NCI-H460 lung = system: NCI-H460 lung
NCI/ADR-RES ovarian = system: NCI/ADR-RES ovarian
OVCAR-3 ovarian = system: OVCAR-3 ovarian
OVCAR-4 ovarian = system: OVCAR-4 ovarian
OVCAR-5 ovarian = system: OVCAR-5 ovarian
OVCAR-8 ovarian = system: OVCAR-8 ovarian
PC-3 prostate = system: PC-3 prostate
RPMI-8226 leukemia = system: RPMI-8226 leukemia
RXF 393 renal = system: RXF 393 renal
SF-268 CNS = system: SF-268 CNS
SF-295 CNS = system: SF-295 CNS
SK-MEL-2 melanoma = system: SK-MEL-2 melanoma
SK-MEL-28 melanoma = system: SK-MEL-28 melanoma
SK-MEL-5 melanoma = system: SK-MEL-5 melanoma
SK-OV-3 ovarian = system: SK-OV-3 ovarian
SN12C renal = system: SN12C renal
SNB-19 CNS = system: SNB-19 CNS
SNB-75 CNS = system: SNB-75 CNS
SW-620 colon = system: SW-620 colon
T-47D breast = system: T-47D breast
TK-10 renal = system: TK-10 renal
U251 CNS = system: U251 CNS
UACC-257 melanoma = system: UACC-257 melanoma
UACC-62 melanoma = system: UACC-62 melanoma
UO-31 renal = system: UO-31 renal
A498 renal = system: A498 renal
LOX IMVI melanoma = system: LOX IMVI melanoma
NCI-H522 lung = system: NCI-H522 lung
SF-539 CNS = system: SF-539 CNS
SR leukemia = system: SR leukemia
HOP-92 NSCLC = system: HOP-92 NSCLC

CC(C(O)Cc1ccccc1)N(C)N=Nc1ccc([N+](=O)[O-])cc1 (stereo unspecified)
TGI (786-0 renal): 38.6 µM
TGI (A549 NSCLC): 72 µM
TGI (ACHN renal): 77 µM
TGI (BT-549 breast): 40.4 µM
TGI (CAKI-1 renal): 51.8 µM
TGI (CCRF-CEM leukemia): > 100 µM
TGI (COLO 205 colon): 39.2 µM
TGI (DU-145 prostate): 85.5 µM
TGI (EKVX NSCLC): 73.2 µM
TGI (HCC-2998 colon): 32.2 µM
TGI (HCT-116 colon): 30.2 µM
TGI (HCT-15 colon): 61 µM
TGI (HL-60(TB) leukemia): > 100 µM
TGI (HOP-62 NSCLC): 37.5 µM
TGI (HS 578T breast): 55.6 µM
TGI (HT29 colon): 37.2 µM
TGI (IGROV1 ovarian): 43.4 µM
TGI (K-562 leukemia): > 100 µM
TGI (KM12 colon): 53.2 µM
TGI (M14 melanoma): 33.1 µM
TGI (MALME-3M melanoma): 43.3 µM
TGI (MCF7 breast): 80.6 µM
TGI (MDA-MB-231 breast): 33.7 µM
TGI (MDA-MB-435): 40.9 µM
TGI (MDA-N): 39.7 µM
TGI (MOLT-4 leukemia): > 100 µM
TGI (NCI-H226 lung): 39.5 µM
TGI (NCI-H23 lung): 48.1 µM
TGI (NCI-H460 lung): 32.3 µM
TGI (NCI/ADR-RES ovarian): 39.9 µM
TGI (OVCAR-3 ovarian): 36.3 µM
TGI (OVCAR-4 ovarian): > 100 µM
TGI (OVCAR-5 ovarian): 76.1 µM
TGI (OVCAR-8 ovarian): 33.7 µM
TGI (PC-3 prostate): 40.5 µM
TGI (RPMI-8226 leukemia): 55.5 µM
TGI (RXF 393 renal): 23.7 µM
TGI (SF-268 CNS): 47.3 µM
TGI (SF-295 CNS): 46.2 µM
TGI (SK-MEL-2 melanoma): 40.6 µM
TGI (SK-MEL-28 melanoma): 39.9 µM
TGI (SK-MEL-5 melanoma): 34.7 µM
TGI (SK-OV-3 ovarian): 63.9 µM
TGI (SN12C renal): 44.9 µM
TGI (SNB-19 CNS): > 100 µM
TGI (SNB-75 CNS): > 100 µM
TGI (SW-620 colon): 60.6 µM
TGI (T-47D breast): 74.5 µM
TGI (TK-10 renal): 47.7 µM
TGI (U251 CNS): 38.5 µM
TGI (UACC-257 melanoma): 45.4 µM
TGI (UACC-62 melanoma): 37.6 µM
TGI (UO-31 renal): 31.8 µM

Nc1ccc(S(=O)(=O)Nc2nccs2)cc1
TGI (786-0 renal): > 100 µM
TGI (A498 renal): > 100 µM
TGI (A549 NSCLC): > 100 µM
TGI (ACHN renal): > 100 µM
TGI (BT-549 breast): > 100 µM
TGI (CCRF-CEM leukemia): > 100 µM
TGI (COLO 205 colon): > 100 µM
TGI (DU-145 prostate): > 100 µM
TGI (EKVX NSCLC): > 100 µM
TGI (HCC-2998 colon): > 100 µM
TGI (HCT-116 colon): > 100 µM
TGI (HCT-15 colon): > 100 µM
TGI (HL-60(TB) leukemia): > 100 µM
TGI (HOP-62 NSCLC): > 100 µM
TGI (HT29 colon): > 100 µM
TGI (IGROV1 ovarian): > 100 µM
TGI (K-562 leukemia): > 100 µM
TGI (KM12 colon): > 100 µM
TGI (LOX IMVI melanoma): > 100 µM
TGI (M14 melanoma): > 100 µM
TGI (MALME-3M melanoma): > 100 µM
TGI (MCF7 breast): > 100 µM
TGI (MDA-MB-231 breast): > 100 µM
TGI (MDA-MB-435): > 100 µM
TGI (MDA-N): > 100 µM
TGI (MOLT-4 leukemia): > 100 µM
TGI (NCI-H226 lung): > 100 µM
TGI (NCI-H23 lung): > 100 µM
TGI (NCI-H460 lung): > 100 µM
TGI (NCI-H522 lung): > 100 µM
TGI (NCI/ADR-RES ovarian): > 100 µM
TGI (OVCAR-3 ovarian): > 100 µM
TGI (OVCAR-4 ovarian): > 100 µM
TGI (OVCAR-5 ovarian): > 100 µM
TGI (OVCAR-8 ovarian): > 100 µM
TGI (PC-3 prostate): > 100 µM
TGI (RPMI-8226 leukemia): > 100 µM
TGI (RXF 393 renal): > 100 µM
TGI (SF-268 CNS): > 100 µM
TGI (SF-295 CNS): > 100 µM
TGI (SF-539 CNS): > 100 µM
TGI (SK-MEL-2 melanoma): > 100 µM
TGI (SK-MEL-28 melanoma): > 100 µM
TGI (SK-MEL-5 melanoma): > 100 µM
TGI (SK-OV-3 ovarian): > 100 µM
TGI (SN12C renal): > 100 µM
TGI (SNB-19 CNS): > 100 µM
TGI (SNB-75 CNS): > 100 µM
TGI (SR leukemia): > 100 µM
TGI (SW-620 colon): > 100 µM
TGI (T-47D breast): > 100 µM
TGI (TK-10 renal): > 100 µM
TGI (U251 CNS): > 100 µM
TGI (UACC-257 melanoma): > 100 µM
TGI (UACC-62 melanoma): > 100 µM
TGI (UO-31 renal): > 100 µM

On1c(-c2ccccc2)nc2ccccc2c1=S
TGI (786-0 renal): > 100 µM
TGI (A498 renal): > 100 µM
TGI (A549 NSCLC): > 100 µM
TGI (ACHN renal): > 100 µM
TGI (BT-549 breast): > 100 µM
TGI (CAKI-1 renal): > 100 µM
TGI (CCRF-CEM leukemia): > 100 µM
TGI (COLO 205 colon): > 100 µM
TGI (DU-145 prostate): > 100 µM
TGI (EKVX NSCLC): > 100 µM
TGI (HCC-2998 colon): > 100 µM
TGI (HCT-116 colon): > 100 µM
TGI (HCT-15 colon): > 100 µM
TGI (HL-60(TB) leukemia): > 100 µM
TGI (HOP-62 NSCLC): > 100 µM
TGI (HOP-92 NSCLC): > 100 µM
TGI (HS 578T breast): > 100 µM
TGI (HT29 colon): > 100 µM
TGI (IGROV1 ovarian): > 100 µM
TGI (K-562 leukemia): > 100 µM
TGI (KM12 colon): > 100 µM
TGI (LOX IMVI melanoma): > 100 µM
TGI (M14 melanoma): > 100 µM
TGI (MALME-3M melanoma): > 100 µM
TGI (MCF7 breast): > 100 µM
TGI (MDA-MB-231 breast): > 100 µM
TGI (MDA-MB-435): > 100 µM
TGI (MDA-N): > 100 µM
TGI (MOLT-4 leukemia): 11.2 µM
TGI (NCI-H226 lung): > 100 µM
TGI (NCI-H23 lung): > 100 µM
TGI (NCI-H460 lung): 61.8 µM
TGI (NCI/ADR-RES ovarian): > 100 µM
TGI (OVCAR-3 ovarian): > 100 µM
TGI (OVCAR-4 ovarian): > 100 µM
TGI (OVCAR-5 ovarian): > 100 µM
TGI (OVCAR-8 ovarian): > 100 µM
TGI (PC-3 prostate): 74.2 µM
TGI (RPMI-8226 leukemia): > 100 µM
TGI (RXF 393 renal): > 100 µM
TGI (SF-268 CNS): > 100 µM
TGI (SF-295 CNS): > 100 µM
TGI (SF-539 CNS): > 100 µM
TGI (SK-MEL-2 melanoma): 42.8 µM
TGI (SK-MEL-28 melanoma): > 100 µM
TGI (SK-MEL-5 melanoma): > 100 µM
TGI (SK-OV-3 ovarian): > 100 µM
TGI (SN12C renal): > 100 µM
TGI (SNB-19 CNS): > 100 µM
TGI (SNB-75 CNS): > 100 µM
TGI (SW-620 colon): > 100 µM
TGI (T-47D breast): > 100 µM
TGI (TK-10 renal): > 100 µM
TGI (U251 CNS): > 100 µM
TGI (UACC-257 melanoma): > 100 µM
TGI (UACC-62 melanoma): > 100 µM
TGI (UO-31 renal): > 100 µM
